{"source": "patent US6537965B1", "about": "“Amino-terminal modified parathyroid hormone (PTH) analogs” (The General Hospital Corporation, priority 1998, dated 2003)", "assay_type_in_all_cases": "cell-based", "key": {"[1]": {"target": "T1, hPTH-1 receptors (Homo sapiens, UniProt Q03431)", "T1 sequence (Q03431 27-593)": "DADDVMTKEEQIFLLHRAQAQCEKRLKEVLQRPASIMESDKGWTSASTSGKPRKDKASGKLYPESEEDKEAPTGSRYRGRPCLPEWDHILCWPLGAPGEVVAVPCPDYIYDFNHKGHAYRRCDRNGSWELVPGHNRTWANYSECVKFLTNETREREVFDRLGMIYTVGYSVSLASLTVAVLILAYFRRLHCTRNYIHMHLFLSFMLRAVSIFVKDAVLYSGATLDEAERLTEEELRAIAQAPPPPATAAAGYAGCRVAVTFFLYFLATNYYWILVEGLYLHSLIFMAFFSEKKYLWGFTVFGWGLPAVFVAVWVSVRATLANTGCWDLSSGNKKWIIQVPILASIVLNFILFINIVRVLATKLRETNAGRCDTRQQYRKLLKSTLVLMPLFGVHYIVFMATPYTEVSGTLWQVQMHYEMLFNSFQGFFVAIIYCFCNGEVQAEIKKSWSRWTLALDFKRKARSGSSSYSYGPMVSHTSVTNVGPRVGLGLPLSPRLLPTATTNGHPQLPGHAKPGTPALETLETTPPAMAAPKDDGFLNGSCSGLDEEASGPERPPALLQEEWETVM", "test": "AC activation in HKRK B7 cells", "parameters": "expressed in transfected cells", "conditions": "HKRK B7 cells (large number of human PTH-1 receptors)", "description": "(§1) The following cell lines were used in these studies. HKRK C53 subclones of LLC-PKI porcine renal epithelial cells which stably express human PTH-1 receptors (150,000 receptors/cell). SaOS-2 cells are transformed human osteosarcoma cells which express relatively few (10,000-20,000 per cell) human PTH-1 receptors. HPR2-7 cells are subclones of LLC-PK1 which express approximately 250,000 recombinant human PTH-2 receptors per cell. HKRK-B7 cells are subclones of LLC-PK which stably express approximately 1 million hPTH-1 receptors per cell. HPR2-22 cells are subclones of LLC-PK1 which express 1.5 million recombinant hPTH-2 receptors per cell. The HPR2-27 and HPR2-22 cell lines were created in the same fashion as the HKRK cells but employing instead type 2 PTH receptor cDNA using the transfection technique of (Bringhurst, F. R., et al., Endocrinology 132(5):2090-2098 (1993); Guo, J., et al., Endocrinology 136(9):3884-3891 (1995)).\n(§2) Intracellular cAMP accumulation, PLC activation and PTHR binding affinity were measured as previously reported (Bringhurst, F. R., et al., Endocrinology 132(5):2090-2098 (1993); Guo, J., et al., Endocrinology 136(9):3884-3891 (1995)). Intracellular cAMP accumulation was measured in extracts of cells that were exposed to human PTH peptides in the presence of isobutylmethyxanthine (IBMX, 1 mM) at 37° C. for 15 min. After terminating the reactions by aspiration and freezing in liquid nitrogen, cell monolayers were extracted with 50 mM HCl and cAMP was measured using a radioimmunoassay kit (Dupont-New England Nuclear, Boston, Mass.)."}, "[2]": {"target": "T1, hPTH-1 receptors", "test": "cAMP measurements in SaOS-2 cells", "parameters": "expressed in transfected cells", "conditions": "SaOS-2 cells, 10,000-20,000 human PTH-1 receptors per cell; up to 1 uM (FIG. 2)", "description": "as §1, §2"}, "[3]": {"target": "T2, hPTH-2 receptors (Homo sapiens, UniProt P49190)", "T2 construct": "expressed in transfected cells", "T2 sequence (P49190 25-550)": "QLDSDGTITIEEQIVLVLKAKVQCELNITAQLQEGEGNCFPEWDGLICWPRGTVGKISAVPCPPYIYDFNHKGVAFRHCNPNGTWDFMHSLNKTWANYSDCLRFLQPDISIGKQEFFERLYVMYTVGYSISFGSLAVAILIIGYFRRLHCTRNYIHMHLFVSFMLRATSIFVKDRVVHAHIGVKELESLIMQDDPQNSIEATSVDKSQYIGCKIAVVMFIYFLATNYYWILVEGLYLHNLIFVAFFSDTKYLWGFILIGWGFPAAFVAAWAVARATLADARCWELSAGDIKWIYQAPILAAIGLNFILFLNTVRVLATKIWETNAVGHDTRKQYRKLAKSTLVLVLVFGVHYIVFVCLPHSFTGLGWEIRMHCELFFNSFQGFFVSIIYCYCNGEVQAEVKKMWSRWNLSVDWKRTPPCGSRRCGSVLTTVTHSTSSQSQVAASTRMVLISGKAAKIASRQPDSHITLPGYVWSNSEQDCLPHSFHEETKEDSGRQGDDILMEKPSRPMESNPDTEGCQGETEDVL", "test": "cAMP measurements in clonal LLC-PK1 cells (HPR2-7)", "conditions": "for cAMP responsiveness, efficacy compared with hPTH(1-34)NH2 / maximal cyclase activation (maximal response) compared with hPTH(1-34): HPR2-7 cells; for cAMP responsiveness, efficacy compared with hPTH(1-34)NH2: about 250,000 human PTH-2 receptors per cell (FIG. 3); for maximal cyclase activation (maximal response) compared with hPTH(1-34) / EC50 lower than that of hPTH(1-34): human PTH-2 receptor; for maximal cyclase activation (maximal response) compared with hPTH(1-34): very high concentrations (1 micromolar); for EC50: clonal LLC-PK1 cells stably expressing human PTH-2 receptors, read-out: EC50 for activation of AC", "description": "as §1, with “HKRK-B7 cells are subclones of LLC-PK which stably express approximately 1 million hPTH-1 receptors per cell. HPR2-22 cells are subclones of LLC-PK1 which express 1.5 million recombinant hPTH-2 receptors per cell.” left out\nas §2"}, "[4]": {"target": "T2, hPTH-2 receptors", "test": "phospholipase C activation in HPR2-22 cells", "conditions": "1.5 million hPTH-2 receptors per cell, 1,000 nM (FIG. 5)", "description": "as §1\n(§3) PLC was activated by PTH agonists in the presence of 30 mM LiCl at 37° C. for 30 min after 16 hr of labeling with [^3H]myo-inositol (3uCi/ml) in serum-free medium containing 0.1% bovine serum albumin. The reactions were stopped by rapid aspiration and addition of cold 5% TCA. Water-soluble radiolabeled inositol trisphosphate (IP3) was isolated after ether extraction by ion-exchange chromatography (Guo, J., et al., Endocrinology 136(9):3884-3891 (1995)). In experiments involving HEK 293 cells, cells previously transfected with human PTHR cDNA (in the pcDNA1 expression vector HKRK) using Lipofectamine (Gibco BRL) were labeled with [^3H]myo-inositol and assayed as described above, except that total water-soluble [^3H]inositol polyphosphates were collected as a single fraction from the ion-exchange columns."}, "[5]": {"target": "T1, hPTH-1 receptors", "test": "cAMP accumulation (adenylyl cyclase activation) in HKRK C53 cells", "parameters": "expressed in transfected cells", "conditions": "for reduction of AC activity relative to hPTH(1-34): via the human PTH-1 receptor, clonal LLC-PK1 cells; for cyclic AMP accumulation, efficacy compared with native hPTH(1-34)NH2: HKRK C53 cells, about 150,000 hPTH-1 receptors per cell, 10^-9M and 10^-7M peptide (FIG. 1)", "description": "as §1, with “HKRK-B7 cells are subclones of LLC-PK which stably express approximately 1 million hPTH-1 receptors per cell. HPR2-22 cells are subclones of LLC-PK1 which express 1.5 million recombinant hPTH-2 receptors per cell.” left out\nas §2"}, "[6]": {"target": "T1, hPTH-1 receptors", "test": "phospholipase C (PLC) activity in HKRK-B7 cells", "parameters": "expressed in transfected cells", "conditions": "for activation of PLC: about 1 million hPTH-1 receptors per cell, 1000 nM (FIG. 4)", "description": "as §1, §3"}}, "note": "Ends that are not written are not given here. Peptide text beside a SMILES is read from it. * marks the point of attachment. Propionyl = CCC(=O)*"}
{"molecule": "CCC(=O)N[C@H](C(=O)N[C@@H](CO)C(=O)N[C@@H](CCC(=O)O)C(=O)N[C@H](C(=O)N[C@@H](CCC(N)=O)C(=O)N[C@@H](CC(C)C)C(=O)N[C@@H](CCSC)C(=O)N[C@@H](Cc1c[nH]cn1)C(=O)N[C@@H](CC(N)=O)C(=O)N[C@@H](CC(C)C)C(=O)NCC(=O)N[C@@H](CCCCN)C(=O)N[C@@H](Cc1c[nH]cn1)C(=O)N[C@@H](CC(C)C)C(=O)N[C@@H](CC(N)=O)C(=O)N[C@@H](CO)C(=O)N[C@@H](CCSC)C(=O)N[C@@H](CCC(=O)O)C(=O)N[C@@H](CCCNC(=N)N)C(=O)N[C@H](C(=O)N[C@@H](CCC(=O)O)C(=O)N[C@@H](Cc1c[nH]c2ccccc12)C(=O)N[C@@H](CC(C)C)C(=O)N[C@@H](CCCNC(=N)N)C(=O)N[C@@H](CCCCN)C(=O)N[C@@H](CCCCN)C(=O)N[C@@H](CC(C)C)C(=O)N[C@@H](CCC(N)=O)C(=O)N[C@@H](CC(=O)O)C(=O)N[C@H](C(=O)N[C@@H](Cc1c[nH]cn1)C(=O)N[C@@H](CC(N)=O)C(=O)N[C@@H](Cc1ccccc1)C(N)=O)C(C)C)C(C)C)[C@@H](C)CC)C(C)C", "note": "[desamino-[Ala^1]hPTH(1-34)NH2] (Propionyl-VSEIQLMHNLGKHLNSMERVEWLRKKLQDVHNF-NH2)", "values": [{"measurement": "activation of AC compared with hPTH-(1-34)", "setting": "[1]", "result": "approximately equipotent"}, {"measurement": "cyclase (cAMP) activity compared with control hPTH(1-34)", "setting": "[2]", "result": "minimal activity"}, {"measurement": "cAMP responsiveness, efficacy compared with hPTH(1-34)NH2", "setting": "[3]", "result": "enhanced efficacy"}, {"measurement": "maximal cyclase activation (maximal response) compared with hPTH(1-34)", "setting": "[3]; listed as desamino-[Ala^1]", "result": "substantially greater"}, {"measurement": "maximal cyclase activation (maximal response) compared with hPTH(1-34)", "setting": "[3]; listed as desamino-[Ala^1]hPTH(1-34)", "result": "twice"}, {"measurement": "EC50", "setting": "[3]", "result": 10, "unit": "nM"}, {"measurement": "EC50 lower than that of hPTH(1-34)", "setting": "[3]", "result": 3, "unit": "fold"}, {"measurement": "activation of phospholipase C", "setting": "[4]", "result": "greater maximal activation"}, {"measurement": "reduction of AC activity relative to hPTH(1-34)", "setting": "[5]", "result": 10, "unit": "fold"}, {"measurement": "activation of PLC", "setting": "[6]", "result": "no activation of PLC"}]}
{"molecule": "Ac-VSEIQLMHNLGKHLNSMERVEWLRKKLQDVHNF-NH2 [desamino-[Gly^1]hPTH(1-34)NH2]", "values": [{"measurement": "activation of AC compared with hPTH-(1-34)", "setting": "[1]", "result": "approximately equipotent"}, {"measurement": "cyclase (cAMP) activity compared with control hPTH(1-34)", "setting": "[2]", "result": "minimal activity"}, {"measurement": "cAMP responsiveness, efficacy compared with hPTH(1-34)NH2", "setting": "[3]", "result": "enhanced efficacy"}, {"measurement": "maximal cyclase activation (maximal response) compared with hPTH(1-34)", "setting": "[3]; listed as desamino-[Gly^1]", "result": "substantially greater"}, {"measurement": "maximal cyclase activation (maximal response) compared with hPTH(1-34)", "setting": "[3]; listed as desamino-[Gly^1]hPTH(1-34)", "result": "twice"}, {"measurement": "EC50", "setting": "[3]", "result": 10, "unit": "nM"}, {"measurement": "EC50 lower than that of hPTH(1-34)", "setting": "[3]", "result": 3, "unit": "fold"}, {"measurement": "activation of phospholipase C", "setting": "[4]", "result": "greater maximal activation"}, {"measurement": "reduction of AC activity relative to hPTH(1-34)", "setting": "[5]", "result": 10, "unit": "fold"}, {"measurement": "activation of PLC", "setting": "[6]", "result": "no activation of PLC"}]}
{"molecule": "[Ala^1]hPTH(1-34)NH2: hPTH-(1-34) with substitution of Ala^1 for Ser^1 (AVSEIQLMHNLGKHLNSMERVEWLRKKLQDVHNF-NH2; not fully specified (residue 1); UniProt P01270 32-65, looked up, variant S1A)", "values": [{"measurement": "cyclase (cAMP) activity compared with control hPTH(1-34)", "setting": "[2]", "result": "comparable to that of the control peptide"}, {"measurement": "cyclic AMP accumulation, efficacy compared with native hPTH(1-34)NH2", "setting": "[5]", "result": "nearly the same efficacy"}, {"measurement": "activation of PLC", "setting": "[6]", "result": "fill agonists"}]}
{"molecule": "[Gly^1]hPTH(1-34)NH2: hPTH-(1-34) with substitution of Gly^1 for Ser^1 (GVSEIQLMHNLGKHLNSMERVEWLRKKLQDVHNF-NH2; not fully specified (residue 1); UniProt P01270 32-65, looked up, variant S1G)", "values": [{"measurement": "cyclase (cAMP) activity compared with control hPTH(1-34)", "setting": "[2]", "result": "comparable to that of the control peptide"}, {"measurement": "cyclic AMP accumulation, efficacy compared with native hPTH(1-34)NH2", "setting": "[5]", "result": "nearly the same efficacy"}, {"measurement": "PLC activity as % of the hPTH(1-34) maximum", "setting": "[6]; 1000 nM", "result": "approximately 50%"}, {"measurement": "activation of PLC", "setting": "[6]", "result": "only a partial agonist"}]}
